According to patent USRE35281E, “Tetrazole derivatives and aldose reductase inhibition therewith” (Wakamoto Pharmaceutical Co., Ltd., priority 1989, dated 1996):

How the values were obtained:
aldose reductase [1] = target: T1, aldose reductase (Rattus norvegicus, UniProt P07943); assay: Aldose Reductase Inhibition Test (Experiment 1); type: biochemical, rat (male SD rat crystalline lens); settings: DL-glycerine aldehyde 10 mM, pH 6.2, 30° C., 5 min; for inhibition at 50 µM: final concentration 5×10^-5 M (values without asterisk); for inhibition at 1 µM: *Concentration of 10^-6 M
T1 construct: their crystalline lenses were immediately removed and stored at -80° C; The lenses were homogenized; from tissue; host or cells: crystalline lens of six-week-old male SD rats (homogenate supernatant, dialysed)
Experimental: (§1) Six-week-old male SD rats were killed under ether anesthesia and their crystalline lenses were immediately removed and stored at -80° C. The lenses were homogenized in 3 volumes of 135 mM sodium potassium phosphate buffer (pH: 7.0) and centrifuged at a rate of 30,000 rpm for 30 min. The supernatant was dialyzed overnight against 0.05M sodium chloride, to produce an aldose reductase solution. All operations were conducted at 4° C. The enzyme solution was stored at -80° C.
(§2) The activity of aldose reductase was determined according to a slight modification of the method of J. H. Kinoshita et al [J. Biol. Chem., 240, 877 (1965)]. Namely, 0.1 ml of DL-glycerine aldehyde (final concentration: 10 mM) was added to 0.9 ml of 100 mM sodium potassium phosphate buffer (pH 6.2) which contained lithium sulfate (final concentration: 400 mM), reduced nicotinamide adenine dinucleotide phosphate (final concentration: 0.15 mM), the enzyme solution, and the compound to be tested (final concentration: 5×10^-5 M or 10^-6 M), and then the reaction was conducted at 30° C. for 5 min. […] The maximum reducing rate of the absorbance (U) during the reaction was determined. By substracting, from this value, the maximum reducing rate (Uo) at 340 nm of the reaction solution before the addition of the substrate (DL-glycerine aldehyde), the reaction rate (V) (V=U-Uo) was calculated as a true reaction rate in the presence of the compound to be tested.
(§3) The same procedure was repeated except for the absence of the compound to be tested. A true reaction rate (Vo) in case the enzyme was not inhibited was calculated (Vo =U'-Uo '). The inhibitory activity of aldose reductase was determined by the following formula. [formula]

aldose reductase [2] = target: T1, aldose reductase; assay: Aldose reductase inhibition, IC50 determination (Experiment 2); type: biochemical, rat (male SD rat crystalline lens); settings: calculated from inhibitions at three final concentrations; DL-glycerine aldehyde 10 mM, pH 6.2, 30° C.
Experimental: as §1, with “The lenses were homogenized in 3 volumes of 135 mM sodium potassium phosphate buffer (pH: 7.0) and centrifuged at a rate of 30,000 rpm for 30 min.” left out
as §2, with “Namely,” for “The activity of aldose reductase was determined according to a slight modification of the method of J. H. Kinoshita et al [J. Biol. Chem., 240, 877 (1965)]. Namely,”
as §3
In the same manner as Experiment 1, the inhibitions at final concentrations of 10^-6, 10^-7 and […] for the compound to be tested were calculated.

inhibition at 50 µM (aldose reductase [1]) | IC50 (aldose reductase [2]) | inhibition at 1 µM (aldose reductase [1]) | SMILES
44% | – | – | COC(=O)Cn1nnnc1-c1cccc(C)c1 [Compound 1-6, Methyl 5-(3-methylphenyl)-1-tetrazoleacetate]
– | 78 nM | – | CCCCNS(=O)(=O)c1ccc(-c2nnnn2CC(=O)O)cc1 [Compound 3-45, 5-(4-n-Butylaminosulfonylphenyl)-1-tetrazoleacetic acid]
– | 17 nM | – | CCCCc1ccc(-c2nnnn2CC(=O)O)cc1 [Compound 3-14, 5-(4-n-Butylphenyl)-1-tetrazoleacetic acid]
68% | – | – | O=C(O)CCCCn1nnnc1-c1ccccc1 [Compound 3-17, 5-(5-Phenyltetrazol-1-yl)valeric acid]
– | 27 nM | 94% | CC(C)(C)c1ccc(-c2nnnn2CC(=O)O)cc1 [Compound 3-26, 5-(4-t-Butylphenyl)-1-tetrazoleacetic acid]
80% | – | – | O=C(O)CCn1nnnc1-c1ccccc1 [Compound 3-15, 3-(5-Phenyltetrazol-1-yl)propionic acid]
– | 42 nM | 92% | Cc1ccc(-c2nnnn2CC(=O)O)cc1[N+](=O)[O-] [Compound 3-11, 5-(3-Nitro-4-methylphenyl)-1-tetrazoleacetic acid]
– | 41 nM | – | Nc1ccc(-c2nnnn2CC(=O)O)cc1 [Compound 3-40, 5-(4-Aminophenyl)-1-tetrazoleacetic acid]
– | 17 nM | 96% | CCCCCCCc1ccc(-c2nnnn2CC(=O)O)cc1 [Compound 3-24, 5-(4-n-Heptylphenyl)-1-tetrazoleacetic acid]
63% | – | – | O=C(O)C(=O)Nc1cccc(-c2nnn[nH]2)c1 [Compound 5-1, 3-(1H-Tetrazol-5-yl)oxanilic acid]
31% | – | – | COC(=O)Cn1nnnc1-c1ccc(Cl)cc1 [Compound 2-1, Methyl 5-(4-chlorophenyl)-1-tetrazoleacetate]
– | 28 nM | 94% | O=C(O)Cn1nnnc1-c1ccc(Oc2ccccc2)cc1 [Compound 3-25, 5-(4-Phenoxyphenyl)-1-tetrazoteacetic acid]
– | 54 nM | – | O=C(O)Cn1nnnc1-c1ccc(C(=O)N2CCCCC2)cc1 [Compound 3-38, 5-(4-Piperidinocarbonylphenyl)-1-tetrazoleacetic acid]
– | 20 nM | – | O=C(O)Cn1nnnc1-c1ccc(CBr)cc1 [Compound 3-41, 5-(4-Bromomethylphenyl)-1-tetrazoleacetic acid]
– | 22 nM | 95% | O=C(O)Cn1nnnc1-c1ccc(-c2ccccc2)cc1 [Compound 3-23, 5-(4-Biphenylyl)-1-tetrazoleacetic acid]
– | 63 nM | – | COc1ccc(-c2nnnn2CC(=O)O)cc1OC [Compound 3-34, 5-(3,4-Dimethoxyphenyl)-1-tetrazoleacetic acid]
– | 37 nM | – | CSc1ccc(-c2nnnn2CC(=O)O)cc1 [Compound 3-42, 5-(4-Methylthiophenyl)-1-tetrazoleacetic acid]
95% | – | – | CCOC(=O)C(=O)Nc1cc(-c2nnn[nH]2)cc(NC(=O)C(=O)OCC)c1Cl [Compound 4-3, 5-(4-Chloro-3,5-diethyloxalylaminophenyl)tetrazole]
30% | – | – | COC(=O)Cn1nnnc1-c1cccc([N+](=O)[O-])c1 [Compound 2-4, Methyl 5-(3-nitrophenyl)-1-tetrazoleacetate]
– | 42 nM | 94% | O=C(O)Cn1nnnc1-c1ccc(F)cc1 [Compound 3-3, 5-(4-Fluorophenyl)-1-tetrazoleacetic acid]
94% | 27 nM | – | O=C(O)Cn1nnnc1-c1ccc(-c2nnnn2CC(=O)O)cc1 [Compound 3-13, 1,4-Bis(1-carboxymethyl-tetrazol-5-yl)benzene]

inhibition at 50 µM (aldose reductase [1]) | IC50 (aldose reductase [2]) | inhibition at 1 µM (aldose reductase [1]) | SMILES
52% | – | – | CCCCOC(=O)C(=O)Nc1cccc(-c2nnnn2CC(=O)OCC)c1 [Compound 2-8, Butyl 3'-(1-ethoxycarbonylmethyl-tetrazol-5-yl)oxanilate]
58% | – | – | CCCCOC(=O)C(=O)Nc1cccc(-c2nnn[nH]2)c1 [Compound 4-1, 5-(3-n-Butyloxalylaminophenyl)tetrazole]
42% | – | – | COC(=O)Cn1nnnc1-c1ccc(Cl)c([N+](=O)[O-])c1 [Compound 2-6, Methyl 5-(3-nitro-4-chlorophenyl)-1-tetrazoleacetate]
– | – | 84% | O=C(O)Cn1nnnc1-c1ccc(Cl)c([N+](=O)[O-])c1 [Compound 3-2, 5-(3-Nitro-4-chlorophenyl)-1-tetrazoleacetic acid]
92% | – | – | CCCCOC(=O)C(=O)Nc1cc(-c2nnn[nH]2)cc(NC(=O)C(=O)OCCCC)c1Cl [Compound 4-4, 5-(4-Chloro-3,5-di-n-butyloxalylaminophenyl)tetrazole]
– | – | 85% | O=C(O)Cn1nnnc1-c1ccc(Cl)cc1 [Compound 3-10, 5-(4-Chlorophenyl)-1-tetrazoleacetic acid]
92% | – | – | COC(=O)Cn1nnnc1-c1ccccc1 [Compound 1-1, methyl 5-phenyl-1-tetrazoleacetate]
43% | – | – | COC(=O)Cn1nnnc1-c1ccc(OC)cc1 [Compound 1-8, Methyl 5-(4-methoxyphenyl)-1-tetrazoleacetate]
– | 33 nM | 96% | Cc1cccc(-c2nnnn2CC(=O)O)c1 [Compound 3-5, 5-(3-Methylphenyl)-1-tetrazoleacetic acid]
91% | – | – | CC(C(=O)O)n1nnnc1-c1ccccc1 (stereo not drawn) [Compound 3-18, 2-(5-Phenyltetrazol-1-yl)propionic acid]
– | 82 nM | – | O=C(O)Cn1nnnc1-c1ccc(C(=O)O)cc1 [Compound 3-37, 5-(4-Carboxyphenyl)-1-tetrazoleacetic acid]
44% | – | – | COC(=O)Cn1nnnc1-c1ccc([N+](=O)[O-])cc1 [Compound 2-5, Methyl 5-(4-nitrophenyl)-1-tetrazoleacetate]
– | 28 nM | – | COc1cccc(-c2nnnn2CC(=O)O)c1 [Compound 3-33, 5-(3-Methoxyphenyl)-1-tetrazoteacetic acid]
69% | – | – | CCCCOC(=O)C(=O)Nc1ccccc1-c1nnn[nH]1 [Compound 4-2, 5-(2-n-Butyloxalylaminophenyl)tetrazole]
63% | – | – | CCCCOC(=O)Cn1nnnc1-c1ccccc1 [Compound 1-4, n-Butyl 5-phenyl-1-tetrazoleacetate]
– | 43 nM | – | O=C(O)Cn1nnnc1-c1ccc(O)cc1 [Compound 3-31, 5-(4-Hydroxyphenyl)-1-tetrazoleacetic acid]
– | 73 nM | – | CCCN(CCC)C(=O)c1ccc(-c2nnnn2CC(=O)O)cc1 [Compound 3-39, 5-(4-Di-n-propylaminocarbonylphenyl)-1-tetrazoleacetic acid]
– | 48 nM | 95% | COc1ccc(-c2nnnn2CC(=O)O)cc1 [Compound 3-7, 5-(4-Methoxyphenyl)-1-tetrazoleacetic acid]
79% | – | – | O=C(O)CCCn1nnnc1-c1ccccc1 [Compound 3-16, 4-(5-Phenyltetrazol-1-yl)buatyric acid]
36% | – | – | COC(=O)Cn1nnnc1-c1ccc(-c2nnnn2CC(=O)OC)cc1 [Compound 2-10, 1,4-Bis(1-methoxycarbonylmethyl-tetrazol-5-yl)benzene]

SMILES | inhibition at 50 µM (aldose reductase [1]) | IC50 (aldose reductase [2]) | inhibition at 1 µM (aldose reductase [1])
CCCCCCCOc1ccc(-c2nnnn2CC(=O)O)cc1 [Compound 3-32, 5-(4-n-Heptoxyphenyl)-1-tetrazoleacetic acid] | – | 29 nM | –
CCCCOc1ccc(-c2nnnn2CC(=O)O)cc1OCCCC [Compound 3-35, 5-(3,4-Di-n-butoxyphenyl)-1-tetrazoleacetic acid] | – | 33 nM | –
CCCCOc1ccc(-c2nnnn2CC(=O)O)cc1 [Compound 3-27, 5-(4-n-Butoxyphenyl)-1-tetrazoleacetic acid] | – | 18 nM | 96%
